# Values of other authors as cited in PMC6504684 (Frontiers in Pharmacology, 2019).
# Experiments:
# GABAβ receptors = conditions: cited from earlier work
# rat α9α10 nAChR = conditions: cited from earlier work
# [1] = system: models of pain and inflammation; conditions: in vivo; cited from earlier work
# α9α10 nAChR = conditions: cited from earlier work
substance,measurement,setting,value
Vc1.1,"effects via GABAβ receptors, in words",GABAβ receptors,can also be transmitted via inhibition of GABAβ receptors
same,IC50,rat α9α10 nAChR,0.019 µM
same,"analgesic and anti-inflammatory effects, in words",[1],analgesic and anti-inflammatory effects
same,"selectivity for the α9α10 nAChR, in words",α9α10 nAChR,α9α10 selective
